Assays:
Format in all cases: cell-based
[1] = target: GPR174 (Homo sapiens, UniProt Q9BXC1); experiment: CRE-Luc reporter Gs signaling assay, cells transfected with GPR174; parameters: host or cells: HEK293 or CHO cell lines (ATCC); details: CRE-Luc reporter
Experimental: Compounds were tested in the reporter system with increasing concentrations of GPR174-interacting compounds. GPR174 construct pCMV6-XL4-GPR174 or ADBR2, reporter of interest, pCRE-Luc or GL4.29 (3000 ng), and TK-renilla as an internal control (10 ng) with lipofectamine 2000 (60 ug) (Invitrogen, CA) according to the manufacturer's directions.
The DNA/lipofectamine 2000 mix (3000 μL) was incubated at room temperature for 30 minutes and then added into a 10 cm culture dish (Corning, NY) containing 70-90% confluent cultured cells, typically HEK293 or CHO cell lines (ATCC, VA), in 15 mL of media. The cells were further incubated for 4-6 hours at 37° C. and then media were removed and cells were detached with 2 mL trypsin (Life Technologies, CA). Media (26 mL) were added to the detached cells and 120 μL of transfected cells were transferred to each well on a 96-well plate. Increasing concentration of each compound in DMSO (1.2 μl) was added to the cells after plating into the 96-well plate. The cells were further incubated at 37° C. for various times. The media were removed and the cells lysed. Luciferase and renilla activities were measured with the Dual-luciferase assay system (Promega, WI) according to the manufacturer's directions. Typically, lysis buffer (25 μL) was added to the cells and incubated at room temperature for 20-30 minutes to allow for the cells to lyse. The lysate (10 μL) was measured for luciferase and renilla activity with LARII and Stop&Glo reagent (50 μL each) with a SpectraMax L (Molecular Devices, CA). Data were analyzed with either Excel (Microsoft, WA) or Prism 4.03 (GraphPad, CA).
ADBR2 is a GPCR, like GPR174, that activates the Gs signaling pathway.

[2] = system: human PBMCs; experiment: Treg (FoxP3/Helios) flow cytometry in anti-CD3/anti-CD28 stimulated human PBMCs
Experimental: (§1) A fraction of the cells was taken for staining on day 3 post-stimulation, while the rest of the cells were split 1:4 with fresh medium and used for staining on day 7 post-stimulation. To determine the fraction of natural Treg (nTreg) cells (FoxP3^+Helios^+), PBMCs were washed, stained with fluorescently labeled anti-CD4 antibodies, fixed, permeabilized and stained with a mixture of fluorescent anti-FoxP3 and anti-Helios antibodies. Labeled cells were analyzed by flow cytometry for populations stained for these three markers. Each experiment was performed in triplicate and was repeated five times.
as §1, with “three” for “five”
as §1, with “day 2” for “day 3”, “(FoxP3^+Helios^+), PBMC” for “(FoxP3^+Helios^+), PBMCs”

[3] = system: PD-L1, TIGIT, AREG expression in human T cells; experiment: PD-L1, TIGIT and AREG expression on human T cells in PBMC cultures; details: 1.25 or 5 μM; one day post-stimulation; dose-dependent
Experimental: PBMC cells from a single donor mixed with additional irradiated antigen-presenting cells (APC) and anti-CD3 antibodies (UCHT1) were incubated in the presence of various concentrations of GPR174 inhibitory compound #10 (1.25 to 5 μM) or equivalent concentrations of vehicle (DMSO). The cells were analyzed by flow cytometry for expression of CD4, CD8, PD-L1, TIGIT and AREG.

Chain of GPR174 (Q9BXC1 whole entry): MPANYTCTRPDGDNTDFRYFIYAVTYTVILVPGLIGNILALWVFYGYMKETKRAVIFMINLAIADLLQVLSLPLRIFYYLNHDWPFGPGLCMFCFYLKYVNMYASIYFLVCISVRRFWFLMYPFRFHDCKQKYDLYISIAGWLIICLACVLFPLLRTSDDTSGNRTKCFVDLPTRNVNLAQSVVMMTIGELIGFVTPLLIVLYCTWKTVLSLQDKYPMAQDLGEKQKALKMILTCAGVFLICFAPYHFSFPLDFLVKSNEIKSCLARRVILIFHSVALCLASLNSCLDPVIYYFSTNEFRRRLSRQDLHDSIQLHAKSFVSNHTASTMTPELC

CC1CCN(c2cc(N3CCN(S(=O)(=O)c4ccccc4)CC3)c([N+](=O)[O-])cc2F)CC1 [Compound 10]
effect on Gs pathway in the presence of GPR174 [1]: inhibited the Gs pathway
fraction of FoxP3+Helios− cells in CD4+ population ([2]; day 3 post-stimulation, 100 μM, p=0.03 vs vehicle): significantly increased
abundance of FoxP3+Helios+ nTreg cells (fraction of vehicle) ([2]; day 7, 30 μM, PBMC from eight donors): significantly reduced
abundance of FoxP3+Helios+ nTreg cells in CD4+ population ([2]; day 7, 3, 10, 30 μM, single donor, dose-dependent): significantly reduced
abundance of FoxP3+Helios+ nTreg cells in CD4+ population ([2]; day 7 post-stimulation, 100 μM, p=0.01 vs vehicle): significantly reduced
fraction of human CD4+ T cells with AREG positive staining [3]: reduced
fraction of human CD4+ T cells with PD-L1 positive staining [3]: reduced
fraction of human CD8+ T cells with TGIT positive staining [3]: reduced

From US20230321083A1, “Inhibitors of GPR174 and Uses Thereof” (Omeros Corporation, priority 2016, published 2023)
